Experimental data reported in patent US5049372A, “Anticancer activities in a host by increasing blood and plasma adenosine 5'-triphosphate (ATP) levels” (priority 1988, dated 1991).

Experiments:
[1] = tested on: CAPAN-1 xenografts; test: Arrest of growth of CAPAN-1 xenografts in athymic nu/nu mice (Table 2); type: in vivo, human; conditions: 1 ml of 50 mM i.p.
Procedure: The tumor cell lines employed were CT26, a mouse undifferentiated, aggressive colon carcinoma, and CAPAN-1, a well-differentiated human pancreatic adenocarcinoma. […] The cells are shown to be free of Mycoplasma contamination. Cells are cultured at 37° C. in a humidified atmosphere of 5% CO2 /95% air in MEM supplemented with antibiotics (100 units of penicillin per ml and 100 μg streptomycin per ml), L-glutamine (2 mM), non-essential amino acids (0.1 mM), sodium pyruvate (1 mM), and 10% fetal bovine serum.
In the tests, females and males CB6F1 mice (a standard F1 hybrid of BALB/C and C57BL/6) obtained from Jackson Laboratories, Bar Harbor, Maine and athymic outbred NCr nu/nu mice (males and females) from the Department of Radiation Medicine, Massachusetts General Hospital, Boston, Mass. 02114 are used. All the mice are kept for at least two weeks before inoculation of the tumors and the start of treatment and are 7-9 weeks old (CB6F1) or 6-7 weeks old (athymic nu/nu) at the start of the procedure. Animals weigh 20-25 g (females) or 23-28 g (males), are housed 5-12 per cage, and have ad libitum access to food and water.
(§1) Tumor cells are removed from subconfluent cultures by a mild trypsin-EDTA treatment, the cell pellet is washed once with MEM without serum and the cells are suspended at the desired cell numbers in PBS (phosphate-bufferedsaline, 8 g NaCl, 0.2 g KCl, 1.15 g Na2 HPO4.7H2 O, and 0.2 g KH2 PO4 per liter). Cell suspensions are shown to be at least 90% viable by trypan blue exclusion. Mice are injected subcutaneously in the right hind footpad with tumor cells suspended in 50 μl of PBS. The regular protocol (unless otherwise stated) consists of daily i.p. injections of 1 ml of 0.85% NaCl solution or 1 ml of 50 mM of AMP, ADP, or ATP in 0.85% NaCl (from stock solutions adjusted to pH 6.2) starting one day after tumor inoculation and given for ten consecutive days.
(§2) Injections are administered with 30 gauge needles and the mice are lightly anesthetized with ether. The mice are weighed before the start of treatment and once a week during and after treatment. After the tumors become palpable, tumor sizes are determined every three days. The animals are sacrificed, tumors are excised and weighed before they reach 10% of the animals' weight.
The effects of AMP, ADP, and ATP on human tumor xenografts in nude mice were evaluated utilizing the pancreatic ductal adenocarcinoma CAPAN-1 (see Kyriazis AP, Kyriazis AA, Scarpelli DG, Fogh J, Rao SM, Lepera R., "Human Pancreatic Adenocarcinoma Line CAPAN-1 in Tissue Culture and the Nude Mouse", Am. J. Pathol., 1982, 106, 250-260).
Treatment schedules consist of single daily i.p. injections for 10 consecutive days, starting one day after tumor inoculation. Tumor burden is relatively low (0.5-1×10^5 cells implanted) and tumor growth is slow (tumors became palpable 4-6 weeks after inoculation).

[2] = Inhibition of host weight loss (cancer cachexia) in CT26 tumor-bearing mice; type: in vivo, mouse; conditions: FIG. 3; treatment initiated day 1 (A), day 5 (B) or day 9 (C)
Procedure: A further series of tests are conducted whereby tumors are inoculated by injections of 2.5×10^5 CT26 cells (over 90% viability) in 50 μl of phosphate-buffered saline into the right hind footpad of CB6F1 mice. The treatments were initiated at a variety of times after inoculation of the tumors. The injection schedules started either 1 or 5 days after tumor inoculation when none of the tumors are palpable or when the tumors are clearly palpable (average calculated weight of 100 mg), which occur in 100% of the inoculated mice after 8-11 days. Mice are randomized, divided into groups, and injected daily with 2.2 ml of saline, adenosine, AMP, or ATP (compounds are in sterile saline solutions at concentrations of 25 mM with AMP and ATP solutions adjusted to pH 6.2). Injections are administered intraperitoneally with 30 gauge needles and the mice are lightly anesthetized with […]. The mice are weighed and tumor sizes measured before the start of the treatment schedule and every three days during and after the treatment schedule. These determinations are performed before injections during the treatment period.
In particular, see FIG. 2. FIG. 2 illustrates inhibition of tumor growth (---) and host weight loss (-) in tumor-bearing mice by treatment with adenine nucleotides. Mice (CB6F1, 8 week old males) bearing palpable CT26 footpad tumors (on day 9 after tumor inoculation) are treated with saline (.smallcircle.), adenosine (o), AMP (Δ), or ATP (.quadrature.) as described herein. An untreated group is also included (x). Arrows indicate days of injection.
FIG. 3 further illustrates inhibition of host weight loss in tumor-bearing animals by treatment with adenine nucleotides. Mice (CB6F1, males, 7 weeks old, in A, 10 weeks old in B, C) are inoculated with CT26 tumors and daily treatments (for 10 consecutive days) with saline (.smallcircle.), adenosine (o), AMP (Δ), or ATP (.quadrature.) are initiated 1 day (A), 5 days (B), or 9 days after tumor inoculation (when all the tumors were palpable) (C). Arrows indicate days of injection. Experimental procedures were outlined in the text.

[3] = Host toxicity (deaths, body weight) in treated mice; type: in vivo, mouse; conditions: for Deaths: i.p. injections of adenine nucleotides
Procedure: as §1, §2

[4] = ATP levels in mouse blood (total cellular) and plasma after i.p. injection (Table 3); type: in vivo; conditions: for Blood ATP levels: total cellular
Procedure: The mice are anesthetized with ether during the procedure. The plasma is prepared by immediate centrifugation of the blood in a Beckman microfuge (30 sec at 8000 xg). Blood (20 μl) or plasma (100 μl) aliquots are added to 1 ml of cold 7% trichloroacetic acid. […] The determination of ATP levels in the extracts is performed by bioluminometry (luciferinluciferase) using a Turner Designs Bioluminescence Photometer.

[5] = tested on: tumor cells; conditions: low doses; prior application Ser. No. 397,897; cited from earlier work
[6] = Rate of extracellular ATP degradation by mouse blood in vitro (Table 6); type: in vitro ADME; conditions: 1 mM, 37° C.
Procedure: *Blood (450 μl) was withdrawn into a syringe containing either 50 μ
of citratedextrose or 50 μl of heparin (100 U/ml). Whole blood was the
added to 1 mM of [^3 H]ATP in saline (25 μl) and at various time
points blood aliquots (90 μl) were removed and centrifuged. Plasma (20
μl) was withdrawn and added to 1 ml of icecold trichloroacetic acid.
Thin layer chromatography on poly(ethylene)imine cellulose was performed
according to published procedures. The rate of degradation of 1 mM of
[^3 H]ATP was linear for mouse or human blood during the initial 30
minute incubation at 37° C.

[7] = tested on: human subjects; conditions: slow injections or infusions of the same dose (40 mg); cited from earlier work
[8] = experiment 4, 11 F, 0.5 × 10^5 cells, 10 weeks
[9] = experiment 5, 10 F, 0.5 × 10^5 cells, 9 weeks
[10] = CB6F1, 1 hour after i.p. 1 ml of 50 mM
[11] = CB6F1, 5 hours after i.p. 1 ml of 50 mM
[12] = athymic nu/nu, 1 hour after i.p. 1 ml of 50 mM
[13] = athymic nu/nu, 4 hours after i.p. 1 ml of 50 mM

Structure (SMILES): Nc1ncnc2c1ncn2[C@@H]1O[C@H](COP(=O)(O)O)[C@@H](O)[C@H]1O [AMP, adenosine 5'-monophosphate]
- Arrested tumors/implanted tumors [1, 8]: 7/11
- Arrested tumors/implanted tumors [1, 9]: 6/10
- Deaths before stated day after tumor inoculation [2]: No deaths occurred before day 19 (A) or day 25 (B,C)
- Side-effects relative to ATP ([3]; host animals): less side-effects than ATP
- Deaths [3]: did not cause any deaths
- Plasma ATP levels [4, 10]: 1.75 ± 0.36 µM
- Blood ATP levels [4, 10]: 1.23 ± 0.21 mM
- Plasma ATP levels [4, 11]: 1.69 ± 0.19 µM
- Blood ATP levels [4, 11]: 1.36 ± 0.24 mM
- Plasma ATP levels [4, 12]: 2.17 ± 0.36 µM
- Blood ATP levels [4, 12]: 1.87 ± 0.46 mM
- Plasma ATP levels [4, 13]: 1.97 ± 0.41 µM
- Blood ATP levels [4, 13]: 2.35 ± 0.67 mM
- Effect on growth of tumor cells in vitro (in words) [5]: would not inhibit cellular growth

Structure (SMILES): Nc1ncnc2c1ncn2[C@@H]1O[C@H](COP(=O)(O)OP(=O)(O)OP(=O)(O)O)[C@@H](O)[C@H]1O [ATP, adenosine 5'-triphosphate]
- Rate of extracellular ATP degradation ([6]; citrate): 6.87 pmol/µL/min
- Rate of extracellular ATP degradation ([6]; heparin): 10.21 pmol/µL/min
- Arrested tumors/implanted tumors ([1]; experiment 2, 5 F, 1 × 10^5 cells, 7 weeks): 4/5
- Arrested tumors/implanted tumors ([1]; experiment 3, 5 F, 1 × 10^5 cells, 6 weeks): 3/5
- Arrested tumors/implanted tumors [1, 8]: 8/11
- Arrested tumors/implanted tumors [1, 9]: 8/10
- Deaths before stated day after tumor inoculation [2]: No deaths occurred before day 19 (A) or day 25 (B,C)
- Deaths [3]: Occasionally, an animal treated with ATP or ADP would die a few hours after injection
- Response to slow injection or infusion in human subjects [7]: much lesser or no response at all
- Plasma ATP levels [4, 10]: 3.99 ± 0.81 µM
- Blood ATP levels [4, 10]: 2.53 ± 0.61 mM
- Plasma ATP levels [4, 11]: 5.14 ± 0.71 µM
- Blood ATP levels [4, 11]: 3.47 ± 0.57 mM
- Plasma ATP levels [4, 12]: 2.93 ± 0.69 µM
- Blood ATP levels [4, 12]: 2.71 ± 0.54 mM
- Plasma ATP levels [4, 13]: 3.01 ± 0.76 µM
- Blood ATP levels [4, 13]: 4.26 ± 0.79 mM
- Effect on growth of tumor cells in vitro (in words) [5]: marked inhibition of DNA synthesis and arrest of significant populations of cells in the S phase of their cycle
